According to publication PMC5042873 (Journal of the American Chemical Society, 2016):

Tests used:
[1] = test system: GLUT1 transporters; conditions: cited from earlier work
[2] = test system: GLUT1 expressing breast cancer (G1fpt); assay: In vivo antitumor efficacy, GLUT1 expressing breast cancer syngeneic model; parameters: species or system Balb/c mice; conditions: 5 mg/kg i.v. bolus, four treatments once every other day, 30 days
[3] = In vivo toxicity by body weight and general behavior; parameters: species or system Balb/c mice; conditions: 5 mg/kg, 4X in 8 days

Structure (SMILES)	affinity for GLUT1 transporters relative to D-glucose [1] [fold]	antitumor efficacy (tumor volume) [2]	tumors smaller compared to tumors in the PBS treated control group [2] [times]	body weight [3]
O=[N+]([O-])c1ccc(NCC2OC(O)C(O)C(O)[C@@H]2O)c2nonc12 (stereo partly shown) [6-NBDG]	300			
O=C1[O][Pt]2([NH][C@@H]3CCCC[C@H]3[NH]2)[O]C1=O [oxaliplatin]		no statistically significant difference compared to the Glc-Pt 2 treated group	10	reduced after the second dose but recovered to normal values
